Numbers after ± are expanded uncertainties.
Details: 100 kPa, Liquid; for viscosity: Concentric cylinders viscometry; for mass density: Vibrating tube method

CCCCCCn1cc[n+](C)c1.O=[N+]([O-])[O-] [1-hexyl-3-methylimidazolium nitrate]
viscosity (293.15 K): 804.17 ± 70 mPa·s | mass density (293.15 K): 1120.3 ± 1.4 kg/m3 | viscosity (298.15 K): 545.25 ± 47 mPa·s | mass density (298.15 K): 1117.5 ± 1.4 kg/m3 | viscosity (303.15 K): 369.14 ± 31 mPa·s | mass density (303.15 K): 1114.3 ± 1.4 kg/m3 | viscosity (308.15 K): 257.59 ± 21 mPa·s | mass density (308.15 K): 1111.1 ± 1.4 kg/m3 | viscosity (313.15 K): 185.67 ± 15 mPa·s | mass density (313.15 K): 1107.8 ± 1.4 kg/m3 | viscosity (318.15 K): 140.18 ± 11 mPa·s | mass density (318.15 K): 1104.7 ± 1.4 kg/m3 | viscosity (323.15 K): 110.94 ± 9 mPa·s | mass density (323.15 K): 1101.6 ± 1.4 kg/m3
